In assay [1] the target is T1, 5-LOX (Homo sapiens, UniProt P09917).
T1 sequence (P09917 1-674): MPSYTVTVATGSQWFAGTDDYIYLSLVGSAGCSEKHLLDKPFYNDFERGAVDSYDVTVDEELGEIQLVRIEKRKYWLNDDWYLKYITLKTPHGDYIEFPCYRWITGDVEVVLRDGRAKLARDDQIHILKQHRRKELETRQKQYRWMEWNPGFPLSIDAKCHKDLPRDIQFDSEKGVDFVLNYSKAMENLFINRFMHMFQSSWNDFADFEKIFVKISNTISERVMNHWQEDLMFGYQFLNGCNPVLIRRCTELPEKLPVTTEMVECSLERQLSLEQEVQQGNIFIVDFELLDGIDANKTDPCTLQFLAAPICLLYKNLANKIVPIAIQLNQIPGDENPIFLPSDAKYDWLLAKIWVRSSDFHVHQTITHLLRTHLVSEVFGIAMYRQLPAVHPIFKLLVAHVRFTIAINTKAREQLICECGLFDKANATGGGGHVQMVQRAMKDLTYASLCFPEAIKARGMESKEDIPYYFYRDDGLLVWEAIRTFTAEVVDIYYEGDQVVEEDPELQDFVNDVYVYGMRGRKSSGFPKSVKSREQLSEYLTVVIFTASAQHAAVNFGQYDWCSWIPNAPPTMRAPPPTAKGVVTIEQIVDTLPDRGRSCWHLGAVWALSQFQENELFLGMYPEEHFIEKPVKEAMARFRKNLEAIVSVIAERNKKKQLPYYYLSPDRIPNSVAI
The experiment in a line: fluorescence-based enzyme assay of human 5-LOX (Table 3). Format: biochemical. The text has this: (§1) Table 3 provides results for exemplary subject bisindole compounds on 5-LOX, 12-LOX and 15-LOX.

For assay [2], the target named is T2, human 12-LOX (Homo sapiens, UniProt P18054).
T2 construct: ferric oxidation of xylenol orange from arachidonic acid in human blood platelets; endogenous in cells; host or cells: human blood platelets
T2 sequence (P18054 1-663): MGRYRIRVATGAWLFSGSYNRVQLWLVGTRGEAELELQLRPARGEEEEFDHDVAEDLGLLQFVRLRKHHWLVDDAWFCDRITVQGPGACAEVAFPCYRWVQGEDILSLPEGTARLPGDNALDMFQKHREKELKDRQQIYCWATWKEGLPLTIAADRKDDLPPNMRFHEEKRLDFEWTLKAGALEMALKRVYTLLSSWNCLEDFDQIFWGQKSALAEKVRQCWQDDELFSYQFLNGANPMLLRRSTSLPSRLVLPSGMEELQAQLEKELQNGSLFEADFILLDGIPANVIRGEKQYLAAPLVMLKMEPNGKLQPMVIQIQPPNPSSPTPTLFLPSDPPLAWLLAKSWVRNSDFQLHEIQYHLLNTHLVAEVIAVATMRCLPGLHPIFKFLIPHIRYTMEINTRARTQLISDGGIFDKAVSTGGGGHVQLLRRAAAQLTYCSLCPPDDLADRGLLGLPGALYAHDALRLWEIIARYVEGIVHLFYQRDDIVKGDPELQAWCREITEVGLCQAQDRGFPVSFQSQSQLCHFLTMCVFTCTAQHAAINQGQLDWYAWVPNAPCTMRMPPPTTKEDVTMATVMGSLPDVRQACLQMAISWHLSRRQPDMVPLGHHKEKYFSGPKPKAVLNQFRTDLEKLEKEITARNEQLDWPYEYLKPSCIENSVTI
The assay is described as follows: colorimetric platelet 12-LOX activity assay (ferric oxidation of xylenol orange, human blood platelets). Type of assay: cell-based.
Source text: as §1

Assay [3] concerns the target T3, 15-LOX-2 (Homo sapiens, UniProt O15296).
T3 sequence (O15296 1-676): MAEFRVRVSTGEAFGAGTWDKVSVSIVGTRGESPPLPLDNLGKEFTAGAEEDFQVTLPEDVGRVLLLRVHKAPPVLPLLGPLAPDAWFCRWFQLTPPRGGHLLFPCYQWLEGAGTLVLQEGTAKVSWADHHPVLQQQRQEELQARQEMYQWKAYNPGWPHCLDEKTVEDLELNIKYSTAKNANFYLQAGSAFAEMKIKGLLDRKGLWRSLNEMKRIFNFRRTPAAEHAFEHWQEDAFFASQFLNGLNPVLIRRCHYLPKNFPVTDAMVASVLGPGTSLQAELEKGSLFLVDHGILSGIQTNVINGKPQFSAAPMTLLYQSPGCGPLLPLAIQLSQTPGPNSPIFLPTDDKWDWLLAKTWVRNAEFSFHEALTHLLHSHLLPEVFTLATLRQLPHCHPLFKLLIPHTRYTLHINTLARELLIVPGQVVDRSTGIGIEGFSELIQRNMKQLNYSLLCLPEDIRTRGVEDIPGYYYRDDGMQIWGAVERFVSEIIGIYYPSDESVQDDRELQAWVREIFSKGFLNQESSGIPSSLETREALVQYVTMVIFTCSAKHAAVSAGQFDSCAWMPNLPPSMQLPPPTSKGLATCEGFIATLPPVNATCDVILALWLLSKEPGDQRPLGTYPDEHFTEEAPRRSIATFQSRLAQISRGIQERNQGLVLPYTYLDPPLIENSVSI
The experiment in a line: in vitro 15-LOX-2 inhibition (Table 3). Format: biochemical.
Source text: as §1

Assay [4] deals with amyloid-beta (Abeta) formation. The experiment in a line: secreted Abeta40/Abeta42 ELISA in N2A-APPswe cells. Type of assay: cell-based. The note with it: Mus musculus, 24 hours treatment. The procedure:
A neuronal cell-based screening assay capable of sensitive and selective detection of secreted Aβ40 and Aβ42 was established. Mouse neuro-2A neuroblastoma (N2A) cells were co-transfected with pSV2neo selection plasmid and a human APP gene carrying the K670N/M671L Swedish mutations (APPswe) that are known to cause early-onset AD. The transfected cells were selected in G418-containing medium, and single colonies were analyzed for the expression of APPswe. The resulting stable cell line, N2A-APPswe, provides a platform for screening inhibitors that alter Aβ formation from the human APPswe gene. Levels of secreted Aβ40 and Aβ42 in the medium can be quantified by ELISA kits. Table 4 provides results for exemplary subject bisindole compounds on amyloid-beta (Abeta) formation at 5 μM after 24 hours treatment in N2A-APPswe cells.

[5] abbreviates: read-out: Abeta 40 formation (% of control).
Setting [6] is: read-out: Abeta 42 formation (% of control).

Molecules are shown by their SMILES. Where two headings read alike, the source gives them in different places.

Take `Cl.Fc1ccc2[nH]c3c(OCC4CCCN4)c4[nH]c5ccc(F)cc5c4cc3c2c1` (centres unmarked): the “5-LOX % Inhibition at 3 μM” value in assay [1] (3 μM) was 95%. For the same molecule, the “12-LOX % Inhibition at 3 μM” value in assay [2] (3 μM) came out at 77%. Besides, the “15-LOX-2 % Inhibition at 3 μM” value in assay [3] (3 µM) came to 63%.
Consider `Fc1ccc2[nH]c3c(OCC4CCCN4)c4[nH]c5ccc(F)cc5c4c(C(F)(F)F)c3c2c1` (centres unmarked) [drawing 17], for which the inhibition at 3 µM in assay [1] (3 μM) came to 77%; in assay [2] (3 μM) it was 77%; in assay [3] it was 17%.
For `c1ccc2c(c1)[nH]c1c(OCCCN3CCOCC3)c3[nH]c4ccccc4c3cc12`, the values for the activity at 5 µM in assay [4] (setting [5]) and in assay [4] (setting [6]) were 95% and 25%, respectively.
For `N=C(N)NCCCOc1c2[nH]c3ccc(F)cc3c2cc2c1[nH]c1ccc(F)cc12` [drawing 28], in that order: 82% and 58%.
For `N=C(N)NCCCOc1c2[nH]c3ccc(Cl)cc3c2cc2c1[nH]c1ccc(Cl)cc12`, in that order: 77% and 8%.
For `CCOC(=O)c1ccc2[nH]c3c(O[C@H]4CCNC4)c4[nH]c5ccc(C(=O)OCC)cc5c4cc3c2c1` [drawing 35], in that order: 70% and 48%.
As to `Cc1nnn(CCOc2c3[nH]c4ccc(F)cc4c3cc3c2[nH]c2ccc(F)cc23)n1`, the activity at 5 µM turned out to be 66% in assay [4] (setting [5]) and 36% in assay [4] (setting [6]).
On to `Fc1ccc2[nH]c3c(OCC4CCCN4)c4[nH]c5ccc(F)cc5c4cc3c2c1` (centres unmarked) [drawing 14], for which the values for the inhibition at 3 µM in assay [1] (3 μM), in assay [2] (3 μM) and in assay [3] were 94%, 78% and 61%, respectively.
`Fc1ccc2[nH]c3c(OC4CCNC4)c4[nH]c5ccc(F)cc5c4cc3c2c1` (centres unmarked) [drawing 29]: the figures for the activity at 5 µM in assay [4] (setting [5]) and in assay [4] (setting [6]) were 71% and 9%, respectively.
For `Nc1nnn(CCOc2c3[nH]c4ccc(Cl)cc4c3cc3c2[nH]c2ccc(Cl)cc23)n1` [drawing 26], in that order: 86% and 75%.
For `CN(C)CCOc1c2[nH]c3ccc(F)cc3c2cc2c1[nH]c1ccc(F)cc12` [drawing 24], the activity at 5 µM in assay [4] (setting [5]) stood at 79%; in assay [4] (setting [6]), 76%.
Consider `N=C(N)NCCCOc1c2[nH]c3ccc(F)cc3c2cc2c1[nH]c1ccc(F)cc12` [drawing 11], for which the values for the inhibition at 3 µM in assay [1] (3 μM), in assay [2] (3 μM) and in assay [3] were 95%, 79% and 66%, respectively.
For `Clc1ccc2[nH]c3c(OCC4CCCN4)c4[nH]c5ccc(Cl)cc5c4cc3c2c1` (centres unmarked) [drawing 13], in that order: 79%, 79% and 43%.
For `Nc1nnnn1CCOc1c2[nH]c3ccc(Cl)cc3c2cc2c1[nH]c1ccc(Cl)cc12` [drawing 10], the inhibition at 3 µM amounted to 85% in assay [1] (3 μM), 73% in assay [2] (3 μM) and 24% in assay [3].
`Fc1ccc2[nH]c3c(OCCN4CC[C@H](F)C4)c4[nH]c5ccc(F)cc5c4cc3c2c1`: the activity at 5 µM in assay [4] (setting [5]) was determined as 75%; in assay [4] (setting [6]), 35%.
For `Cc1nnnn1CCOc1c2[nH]c3ccc(F)cc3c2cc2c1[nH]c1ccc(F)cc12`, in that order: 66% and 36%.
Take `Clc1ccc2[nH]c3c(OCC4CCCN4)c4[nH]c5ccc(Cl)cc5c4cc3c2c1` (centres unmarked) [drawing 30]: the activity at 5 µM in assay [4] (setting [5]) was determined as 69%; in assay [4] (setting [6]) it was 59%.
For the molecule `Clc1ccc2[nH]c3c(OCCCn4cncn4)c4[nH]c5ccc(Cl)cc5c4cc3c2c1` [drawing 8], the figures for the inhibition at 3 µM in assay [1] (3 μM), in assay [2] (3 μM) and in assay [3] were 85%, 89% and 25%, respectively.
Consider `Fc1ccc2[nH]c3c(OCCN4CCCCC4)c4[nH]c5ccc(F)cc5c4cc3c2c1`, for which the activity at 5 µM worked out at 82% in assay [4] (setting [5]) and 19% in assay [4] (setting [6]).
Regarding `CCN(CC)CCOC(=O)c1ccc2[nH]c3c(OC)c4[nH]c5ccc(C(=O)OCCN(CC)CC)cc5c4cc3c2c1`, the inhibition at 10 µM in assay [1] (10 μM (footnote *)) came out at 80%; in assay [2] (10 μM (footnote *)) it was 12%.
As to `Fc1ccc2[nH]c3c(OCCn4cncn4)c4[nH]c5ccc(F)cc5c4cc3c2c1`, the activity at 5 µM in assay [4] (setting [5]) is 53%; in assay [4] (setting [6]), 30%.
As for `Nc1nnnn1CCOc1c2[nH]c3ccc(Cl)cc3c2cc2c1[nH]c1ccc(Cl)cc12` [drawing 27], the activity at 5 µM in assay [4] (setting [5]) worked out at 81%; in assay [4] (setting [6]), 71%.
For `F[C@@H]1CN[C@H](COc2c3[nH]c4ccc(Cl)cc4c3cc3c2[nH]c2ccc(Cl)cc23)C1`, in that order: 59% and 3%.
On to `Fc1ccc2[nH]c3c(OCC4CCCN4)c4[nH]c5ccc(F)cc5c4cc3c2c1` (centres unmarked) [drawing 36], for which the activity at 5 µM in assay [4] (setting [5]) amounted to 65%; in assay [4] (setting [6]), 52%.
On to `Fc1ccc2[nH]c3c(C(F)(F)F)c4[nH]c5ccc(F)cc5c4cc3c2c1`, for which the activity at 5 µM in assay [4] (setting [5]) turned out to be 81%; in assay [4] (setting [6]) it was 47%.
Turning to `Fc1ccc2[nH]c3c(OCC4CCCN4)c4[nH]c5ccc(F)cc5c4c(Cl)c3c2c1` (centres unmarked), the activity at 5 µM in assay [4] (setting [5]) came out at 86%; in assay [4] (setting [6]), 62%.
For `Clc1ccc2[nH]c3c(OCCCn4cncn4)c4[nH]c5ccc(Cl)cc5c4cc3c2c1` [drawing 25], in that order: 66% and 54%.
For `Fc1ccc2[nH]c3c(OCC4CCCO4)c4[nH]c5ccc(F)cc5c4cc3c2c1` (centres unmarked), in that order: 74% and 42%.
For `Fc1ccc2[nH]c3c(OC[C@@H]4C[C@H](F)CN4)c4[nH]c5ccc(F)cc5c4cc3c2c1` [drawing 34], the activity at 5 µM in assay [4] (setting [5]) is 93%; in assay [4] (setting [6]), 67%.
For `COc1c2[nH]c3ccc(F)cc3c2c(N2CCOCC2)c2c1[nH]c1ccc(F)cc12`, in that order: 77% and 43%.
Turning to `CN(C)CCOc1c2[nH]c3ccc(F)cc3c2c(Cl)c2c1[nH]c1ccc(F)cc12` [drawing 33], the activity at 5 µM came to 68% in assay [4] (setting [5]) and 55% in assay [4] (setting [6]).
As for `Fc1ccc2[nH]c3c(OCC4CCCN4)c4[nH]c5ccc(F)cc5c4c(C(F)(F)F)c3c2c1` (centres unmarked) [drawing 32], the values for the activity at 5 µM in assay [4] (setting [5]) and in assay [4] (setting [6]) were 89% and 69%, respectively.

For the origin of these results see patent US20130345214A1, “Lipoxygenase Inhibitors” (SRI International, Inc., priority 2011, published 2013).
